Active and inactive are the calls of the source. No cut-off for these calls is given here.
Legend:
[1] = molecular target: A disintegrin and metalloproteinase with thrombospondin motifs 5 (Homo sapiens, UniProt Q9UNA0); assay: IC50 of hADAMTS5 at 1.0 µM in the Bayer in-house protease panel
[2] = molecular target: Nitric oxide synthase, inducible (Homo sapiens) (UniProt P35228); assay: Inhibition of Nitric Oxide Synthetase, Inducible (iNOS) at 10.0 µM in the Eurofins-Panlabs selectivity screen; details: Mus musculus; Compound concentration 10.0 uM
[3] = molecular target: Carbonic anhydrase 2 (Homo sapiens) (UniProt P00918); assay: Inhibition of Carbonic Anhydrase II at 10.0 µM in the Eurofins-Panlabs selectivity screen; details: Compound concentration 10.0 uM
[4] = molecular target: A disintegrin and metalloproteinase with thrombospondin motifs 12 (Homo sapiens, UniProt P58397); assay: Biochemical enzymatic FRET assay (hADAMTS12) ( FRET substrate, HiLyteFluor-488 DELSSMVLELRGLRT-K(QXL520)-E-NH2 (custom synthesis by Anaspec) was used.)
[5] = molecular target: D(2) dopamine receptor (Homo sapiens) (UniProt P14416); assay: Inhibition of Dopamine D2S at 10.0 µM in the Eurofins-Panlabs selectivity screen; details: Compound concentration 10.0 uM
[6] = molecular target: Polyunsaturated fatty acid lipoxygenase ALOX15 (Homo sapiens) (UniProt P16050); assay: Inhibition of Lipoxygenase 15-LO at 10.0 µM in the Eurofins-Panlabs selectivity screen; details: Compound concentration 10.0 uM
[7] = molecular target: Purinergic P2Y (Rattus norvegicus) (UniProt O35811+Q9EPX4+P49651+Q63371+P41232+O35881+Q6GUG4); assay: Inhibition of Purinergic P2Y at 10.0 µM in the Eurofins-Panlabs selectivity screen; type: protein assay; details: Compound concentration 10.0 uM
[8] = molecular target: Glutamate NMDA receptor (Rattus norvegicus) (UniProt P35439+Q00959+Q00960+Q00961+Q62645+Q8VHN2+Q9R1M7); assay: Inhibition of Glutamate, NMDA, Glycine at 10.0 µM in the Eurofins-Panlabs selectivity screen; type: protein-complex assay; details: Compound concentration 10.0 uM
[9] = molecular target: 72 kDa type IV collagenase (Homo sapiens, UniProt P08253); assay: IC50 of hMMP2 at 1.0 µM in the Bayer in-house protease panel
[10] = molecular target: Cathepsin S (Homo sapiens, UniProt P25774); assay: IC50 of Cathepsin S at 1.0 µM in the Bayer in-house protease panel
[11] = molecular target: Type-1 angiotensin II receptor (Homo sapiens) (UniProt P30556); assay: Inhibition of Angiotensin AT1 at 10.0 µM in the Eurofins-Panlabs selectivity screen; details: Compound concentration 10.0 uM
[12] = molecular target: 5-hydroxytryptamine receptor 2B (Homo sapiens) (UniProt P41595); assay: Inhibition of Serotonin (5-Hydroxytryptamine) 5-HT2B at 10.0 µM in the Eurofins-Panlabs selectivity screen; details: Compound concentration 10.0 uM
[13] = molecular target: Vasopressin V1a receptor (Homo sapiens) (UniProt P37288); assay: Inhibition of Vasopressin V1A at 10.0 µM in the Eurofins-Panlabs selectivity screen; details: Compound concentration 10.0 uM
[14] = molecular target: Mucosa-associated lymphoid tissue lymphoma translocation protein 1 (Homo sapiens, UniProt Q9UDY8); assay: IC50 of MALT1 at 1.0 µM in the Bayer in-house protease panel
[15] = molecular target: Neuronal acetylcholine receptor; alpha3/beta4 (Homo sapiens) (UniProt P30926+P32297); assay: Inhibition of Nicotinic Acetylcholine alpha3beta4 at 10.0 µM in the Eurofins-Panlabs selectivity screen; type: protein-complex assay; details: Compound concentration 10.0 uM
[16] = molecular target: Sodium-dependent dopamine transporter (Homo sapiens) (UniProt Q01959); assay: Inhibition of Transporter, Dopamine (DAT) at 10.0 µM in the Eurofins-Panlabs selectivity screen; details: Compound concentration 10.0 uM
[17] = molecular target: Adenosine receptor A2a (Homo sapiens) (UniProt P29274); assay: Inhibition of Adenosine A2A at 10.0 µM in the Eurofins-Panlabs selectivity screen; details: Compound concentration 10.0 uM
[18] = molecular target: Disintegrin and metalloproteinase domain-containing protein 10 (Homo sapiens, UniProt O14672); assay: IC50 of hADAM10 at 1.0 µM in the Bayer in-house protease panel
Disintegrin and metalloproteinase domain-containing protein 10, sequence (O14672 whole entry, the tested form may be a part): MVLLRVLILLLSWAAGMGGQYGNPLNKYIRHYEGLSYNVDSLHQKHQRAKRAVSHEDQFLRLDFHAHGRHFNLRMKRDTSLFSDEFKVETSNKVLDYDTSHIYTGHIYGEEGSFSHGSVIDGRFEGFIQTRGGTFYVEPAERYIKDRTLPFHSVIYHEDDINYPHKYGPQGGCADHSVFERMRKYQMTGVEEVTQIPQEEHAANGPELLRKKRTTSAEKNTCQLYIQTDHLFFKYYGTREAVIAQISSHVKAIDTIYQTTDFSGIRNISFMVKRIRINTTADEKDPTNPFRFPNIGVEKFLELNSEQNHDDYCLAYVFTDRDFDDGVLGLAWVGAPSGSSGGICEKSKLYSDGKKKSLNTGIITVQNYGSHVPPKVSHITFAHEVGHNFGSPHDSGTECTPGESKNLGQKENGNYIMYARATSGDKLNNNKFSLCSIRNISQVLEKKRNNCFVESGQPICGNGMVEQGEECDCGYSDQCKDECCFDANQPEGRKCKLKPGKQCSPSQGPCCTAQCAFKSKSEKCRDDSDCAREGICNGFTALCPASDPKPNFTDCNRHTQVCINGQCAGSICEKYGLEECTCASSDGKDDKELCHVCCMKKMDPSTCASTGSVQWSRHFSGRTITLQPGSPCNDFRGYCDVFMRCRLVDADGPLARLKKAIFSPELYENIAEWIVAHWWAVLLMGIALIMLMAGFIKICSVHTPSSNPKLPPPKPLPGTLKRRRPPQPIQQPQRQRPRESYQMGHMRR

72 kDa type IV collagenase, sequence (P08253 whole entry): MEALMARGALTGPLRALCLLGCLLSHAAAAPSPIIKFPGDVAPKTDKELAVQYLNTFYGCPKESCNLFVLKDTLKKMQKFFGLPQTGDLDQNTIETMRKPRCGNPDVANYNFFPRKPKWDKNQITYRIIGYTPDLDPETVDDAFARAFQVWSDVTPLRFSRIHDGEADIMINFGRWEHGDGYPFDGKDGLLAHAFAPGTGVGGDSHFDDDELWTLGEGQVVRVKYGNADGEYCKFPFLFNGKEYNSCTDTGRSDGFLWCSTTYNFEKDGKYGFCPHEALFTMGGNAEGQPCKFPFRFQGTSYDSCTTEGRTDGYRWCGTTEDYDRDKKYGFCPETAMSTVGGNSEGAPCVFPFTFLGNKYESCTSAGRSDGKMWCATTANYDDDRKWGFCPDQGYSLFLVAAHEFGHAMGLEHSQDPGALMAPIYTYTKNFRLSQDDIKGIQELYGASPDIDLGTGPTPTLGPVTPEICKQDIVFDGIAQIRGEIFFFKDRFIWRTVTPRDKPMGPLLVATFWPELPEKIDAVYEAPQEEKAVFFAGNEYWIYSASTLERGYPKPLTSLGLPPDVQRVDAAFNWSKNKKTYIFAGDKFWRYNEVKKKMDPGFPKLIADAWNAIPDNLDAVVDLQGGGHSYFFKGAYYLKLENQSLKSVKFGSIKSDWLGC
Mucosa-associated lymphoid tissue lymphoma translocation protein 1, sequence (Q9UDY8 whole entry): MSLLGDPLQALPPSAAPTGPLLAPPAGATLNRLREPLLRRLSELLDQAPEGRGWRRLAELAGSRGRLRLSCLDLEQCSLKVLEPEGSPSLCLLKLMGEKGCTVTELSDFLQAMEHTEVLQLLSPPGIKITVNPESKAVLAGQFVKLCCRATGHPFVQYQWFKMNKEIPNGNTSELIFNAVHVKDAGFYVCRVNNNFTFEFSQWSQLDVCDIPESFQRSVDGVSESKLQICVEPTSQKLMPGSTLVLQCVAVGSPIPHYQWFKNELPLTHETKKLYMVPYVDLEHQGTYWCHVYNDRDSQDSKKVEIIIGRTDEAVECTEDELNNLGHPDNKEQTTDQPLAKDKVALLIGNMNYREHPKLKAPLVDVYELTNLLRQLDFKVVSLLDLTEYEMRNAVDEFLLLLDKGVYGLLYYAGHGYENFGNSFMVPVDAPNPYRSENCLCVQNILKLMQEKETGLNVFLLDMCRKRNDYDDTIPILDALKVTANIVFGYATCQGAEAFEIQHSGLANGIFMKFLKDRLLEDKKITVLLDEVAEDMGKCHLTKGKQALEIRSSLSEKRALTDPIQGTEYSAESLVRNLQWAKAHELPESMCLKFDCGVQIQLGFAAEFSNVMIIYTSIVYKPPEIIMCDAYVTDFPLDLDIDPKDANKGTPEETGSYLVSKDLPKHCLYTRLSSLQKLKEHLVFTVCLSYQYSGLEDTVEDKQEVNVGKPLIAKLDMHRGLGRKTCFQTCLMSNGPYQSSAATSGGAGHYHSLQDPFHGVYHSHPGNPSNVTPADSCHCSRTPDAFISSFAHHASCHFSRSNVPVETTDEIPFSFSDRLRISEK
D(2) dopamine receptor (Homo sapiens), sequence (P14416 whole entry): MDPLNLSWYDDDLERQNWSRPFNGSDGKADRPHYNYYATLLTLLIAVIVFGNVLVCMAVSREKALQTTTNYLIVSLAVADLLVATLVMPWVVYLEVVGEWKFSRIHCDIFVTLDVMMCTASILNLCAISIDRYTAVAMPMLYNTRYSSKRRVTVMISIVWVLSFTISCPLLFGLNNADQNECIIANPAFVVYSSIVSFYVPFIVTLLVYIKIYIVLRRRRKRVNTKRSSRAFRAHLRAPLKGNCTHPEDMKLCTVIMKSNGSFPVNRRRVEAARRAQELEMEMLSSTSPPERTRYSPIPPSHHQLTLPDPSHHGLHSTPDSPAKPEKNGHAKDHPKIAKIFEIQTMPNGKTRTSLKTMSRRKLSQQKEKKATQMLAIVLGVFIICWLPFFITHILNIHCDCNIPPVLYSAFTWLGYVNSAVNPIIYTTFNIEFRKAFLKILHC
Vasopressin V1a receptor (Homo sapiens), sequence (P37288 whole entry, looked up): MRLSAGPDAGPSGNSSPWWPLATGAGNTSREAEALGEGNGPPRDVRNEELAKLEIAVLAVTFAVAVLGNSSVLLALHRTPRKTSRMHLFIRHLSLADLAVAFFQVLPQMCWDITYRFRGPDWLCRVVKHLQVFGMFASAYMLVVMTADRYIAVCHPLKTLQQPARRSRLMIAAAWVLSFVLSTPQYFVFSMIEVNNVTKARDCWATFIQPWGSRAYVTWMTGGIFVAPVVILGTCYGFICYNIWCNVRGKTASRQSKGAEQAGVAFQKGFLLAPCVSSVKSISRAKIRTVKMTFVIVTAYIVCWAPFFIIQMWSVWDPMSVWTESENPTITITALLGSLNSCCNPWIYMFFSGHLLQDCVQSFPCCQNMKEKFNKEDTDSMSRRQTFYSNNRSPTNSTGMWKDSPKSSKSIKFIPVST
Sodium-dependent dopamine transporter (Homo sapiens), sequence (Q01959 whole entry): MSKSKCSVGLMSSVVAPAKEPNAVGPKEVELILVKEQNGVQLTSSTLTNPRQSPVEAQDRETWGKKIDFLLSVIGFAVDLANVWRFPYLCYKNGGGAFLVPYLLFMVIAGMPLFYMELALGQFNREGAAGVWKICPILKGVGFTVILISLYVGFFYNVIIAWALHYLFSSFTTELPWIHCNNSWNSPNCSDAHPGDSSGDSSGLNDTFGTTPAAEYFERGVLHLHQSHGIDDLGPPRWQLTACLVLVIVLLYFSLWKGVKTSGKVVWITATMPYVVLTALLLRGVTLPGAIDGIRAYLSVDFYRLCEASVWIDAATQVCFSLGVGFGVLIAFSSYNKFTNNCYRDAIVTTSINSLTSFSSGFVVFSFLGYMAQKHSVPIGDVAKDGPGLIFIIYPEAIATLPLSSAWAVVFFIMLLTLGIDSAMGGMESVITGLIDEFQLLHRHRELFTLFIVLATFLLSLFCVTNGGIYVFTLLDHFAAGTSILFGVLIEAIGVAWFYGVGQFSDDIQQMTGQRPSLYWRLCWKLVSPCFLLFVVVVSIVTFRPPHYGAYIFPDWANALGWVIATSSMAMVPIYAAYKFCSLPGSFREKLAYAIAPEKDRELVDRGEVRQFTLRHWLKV
Cathepsin S, sequence (P25774 whole entry): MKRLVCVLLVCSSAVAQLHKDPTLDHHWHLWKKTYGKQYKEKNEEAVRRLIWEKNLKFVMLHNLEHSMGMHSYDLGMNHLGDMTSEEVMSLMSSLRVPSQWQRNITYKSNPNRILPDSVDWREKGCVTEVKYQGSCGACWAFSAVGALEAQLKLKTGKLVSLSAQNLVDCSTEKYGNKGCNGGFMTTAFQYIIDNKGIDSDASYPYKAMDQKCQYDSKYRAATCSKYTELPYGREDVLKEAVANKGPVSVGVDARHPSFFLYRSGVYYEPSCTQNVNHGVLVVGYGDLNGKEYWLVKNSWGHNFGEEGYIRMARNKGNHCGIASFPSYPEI
A disintegrin and metalloproteinase with thrombospondin motifs 5, sequence (Q9UNA0 whole entry): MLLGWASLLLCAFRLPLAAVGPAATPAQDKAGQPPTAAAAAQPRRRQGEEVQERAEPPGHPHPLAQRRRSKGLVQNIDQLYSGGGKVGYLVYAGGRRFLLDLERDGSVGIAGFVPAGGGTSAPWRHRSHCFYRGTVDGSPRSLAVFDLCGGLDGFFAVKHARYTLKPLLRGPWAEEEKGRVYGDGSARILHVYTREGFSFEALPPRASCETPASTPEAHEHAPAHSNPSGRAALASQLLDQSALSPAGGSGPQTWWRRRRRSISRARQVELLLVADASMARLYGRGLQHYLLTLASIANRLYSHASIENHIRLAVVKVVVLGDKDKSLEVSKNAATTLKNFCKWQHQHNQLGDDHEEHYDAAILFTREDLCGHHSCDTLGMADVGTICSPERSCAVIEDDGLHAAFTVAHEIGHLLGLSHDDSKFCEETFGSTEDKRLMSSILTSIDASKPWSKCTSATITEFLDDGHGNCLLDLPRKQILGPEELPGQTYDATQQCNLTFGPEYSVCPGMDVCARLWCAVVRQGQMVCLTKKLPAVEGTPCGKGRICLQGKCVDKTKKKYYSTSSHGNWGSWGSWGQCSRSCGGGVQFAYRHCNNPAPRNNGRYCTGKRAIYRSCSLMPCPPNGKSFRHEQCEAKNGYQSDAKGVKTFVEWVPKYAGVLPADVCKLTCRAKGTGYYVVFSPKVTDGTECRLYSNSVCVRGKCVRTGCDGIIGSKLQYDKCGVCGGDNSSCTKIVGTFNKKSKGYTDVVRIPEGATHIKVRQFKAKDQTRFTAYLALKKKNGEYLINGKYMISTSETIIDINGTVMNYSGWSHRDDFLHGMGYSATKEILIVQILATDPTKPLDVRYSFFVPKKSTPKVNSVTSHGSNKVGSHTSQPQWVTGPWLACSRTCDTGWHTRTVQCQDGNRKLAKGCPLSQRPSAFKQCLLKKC

Cn1nccc1[C@]1(CNC(=O)c2ccc(F)c(F)c2-c2ccc(C(F)(F)F)cc2)NC(=O)NC1=O
IC50 [1]: 9.92 µM | inhibition [2]: 0% | inhibition [3]: -2% | IC50 [4]: 0.03 µM (active) | inhibition [5]: 0% | inhibition [6]: -6% | inhibition [7]: -4% | inhibition [8]: -4% | IC50 [9]: > 100 µM | IC50 [10]: > 100 µM | inhibition [11]: -1% | inhibition [12]: -1% | inhibition [13]: 7% | IC50 [14]: > 100 µM | inhibition [15]: 2% | inhibition [16]: 7% | inhibition [17]: 3% | IC50 [18]: 32.8 µM

— ChEMBL document CHEMBL5723583, “Data for DCP probe BAY-9835” (2024)
